Experimental data reported in ChEMBL document CHEMBL3608278 (J Med Chem, 2015).
pIC50: −log10 of the molar value.

What was measured:
[1] = biological target: T1, Potassium voltage-gated channel subfamily A member 3 (Homo sapiens, UniProt P22001); format: cell-based, CHO-K1
[2] = biological target: T1, Potassium voltage-gated channel subfamily A member 3; assay: cell-based; set-up: species or system Blood
[3] = biological target: T1, Potassium voltage-gated channel subfamily A member 3; set-up: species or system Blood

T1 sequence (P22001 whole entry): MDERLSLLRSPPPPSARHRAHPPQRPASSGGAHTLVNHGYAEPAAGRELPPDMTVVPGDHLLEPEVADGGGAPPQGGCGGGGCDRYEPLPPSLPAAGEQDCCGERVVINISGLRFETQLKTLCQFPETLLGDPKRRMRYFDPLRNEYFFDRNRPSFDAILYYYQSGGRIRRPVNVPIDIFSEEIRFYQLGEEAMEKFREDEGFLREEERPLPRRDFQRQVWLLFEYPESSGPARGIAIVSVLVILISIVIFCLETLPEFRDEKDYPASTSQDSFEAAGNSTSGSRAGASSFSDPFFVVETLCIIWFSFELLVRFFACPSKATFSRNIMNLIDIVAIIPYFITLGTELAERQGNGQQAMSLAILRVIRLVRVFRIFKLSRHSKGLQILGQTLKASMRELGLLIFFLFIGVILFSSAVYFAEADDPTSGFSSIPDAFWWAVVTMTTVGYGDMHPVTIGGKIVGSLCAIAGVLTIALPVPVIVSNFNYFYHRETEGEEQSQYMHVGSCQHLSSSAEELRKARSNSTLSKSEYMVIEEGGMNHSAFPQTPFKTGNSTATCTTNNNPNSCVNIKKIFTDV

Compound	pIC50 [1]	pIC50 [2]	pIC50 [3]
CC[C@H](C)[C@@H]1NC(=O)[C@@H](NC(=O)[C@H](CO)NC(=O)[C@@H](N)CCCNC(=N)N)CSSC[C@@H](C(=O)O)NC(=O)[C@H]([C@@H](C)O)NC(=O)CNC(=O)[C@@H]2CSSC[C@@H]3NC(=O)[C@H](CCC(N)=O)NC(=O)[C@H](Cc4ccccc4)NC(=O)[C@H](C)NC(=O)[C@H]([C@@H](C)O)NC(=O)[C@H](CSSC[C@H](NC(=O)[C@H](Cc4ccccc4)NC(=O)[C@H](CO)NC(=O)[C@H](CC(C)C)NC(=O)[C@H](CCCNC(=N)N)NC(=O)[C@H](Cc4ccc(O)cc4)NC(=O)[C@H](CCCCN)NC(=O)[C@H](CCSC)NC(=O)[C@H](CO)NC(=O)[C@H](Cc4cnc[nH]4)NC(=O)[C@H](CCCCN)NC3=O)C(=O)N[C@@H](CCCNC(=N)N)C(=O)N[C@@H](CCCCN)C(=O)N[C@@H]([C@@H](C)O)C(=O)N2)NC(=O)[C@H](CCCNC(=N)N)NC(=O)[C@H](CO)NC(=O)[C@H](CCCCN)NC(=O)[C@H](CCCNC(=N)N)NC(=O)[C@H]([C@@H](C)CC)NC(=O)[C@H]([C@@H](C)O)NC(=O)[C@H](CC(=O)O)NC1=O	9.35	9.60	8.98
CC[C@H](C)[C@@H]1NC(=O)[C@@H](NC(=O)[C@H](CO)NC(=O)[C@@H](N)CCCNC(=N)N)CSSC[C@@H](C(=O)O)NC(=O)[C@H]([C@@H](C)O)NC(=O)CNC(=O)[C@@H]2CSSC[C@@H]3NC(=O)[C@H](CCC(N)=O)NC(=O)[C@H](Cc4ccccc4)NC(=O)[C@H](C)NC(=O)[C@H]([C@@H](C)O)NC(=O)[C@H](CSSC[C@H](NC(=O)[C@H](Cc4ccccc4)NC(=O)[C@H](CO)NC(=O)[C@H](CC(C)C)NC(=O)[C@H](CCCNC(=N)N)NC(=O)[C@H](Cc4ccc(O)cc4)NC(=O)[C@H](CCCCN)NC(=O)[C@H](CCSC)NC(=O)[C@H](CO)NC(=O)[C@H](Cc4cnc[nH]4)NC(=O)[C@H](CCCCN)NC3=O)C(=O)N[C@@H](CCCNC(=N)N)C(=O)N[C@@H](CCCCN)C(=O)N[C@@H]([C@@H](C)O)C(=O)N2)NC(=O)[C@H](CCCNC(=N)N)NC(=O)[C@H](CCCNC(=N)N)NC(=O)[C@H](CCCCN)NC(=O)[C@@H]2CCCN2C(=O)[C@H]([C@@H](C)CC)NC(=O)[C@H]([C@@H](C)O)NC(=O)[C@H](CC(=O)O)NC1=O	10.14	10.14	9.89
CC[C@H](C)[C@@H]1NC(=O)[C@@H](NC(=O)[C@H](CO)NC(=O)[C@@H](N)CCCNC(=N)N)CSSC[C@@H](C(=O)O)NC(=O)[C@H]([C@@H](C)O)NC(=O)CNC(=O)[C@@H]2CSSC[C@@H]3NC(=O)[C@H](CCC(N)=O)NC(=O)[C@H](Cc4ccccc4)NC(=O)[C@H](C)NC(=O)[C@H](CCCNC(=N)N)NC(=O)[C@H](CSSC[C@H](NC(=O)[C@H](Cc4ccccc4)NC(=O)[C@H](CO)NC(=O)[C@H](CC(C)C)NC(=O)[C@H](CCCNC(=N)N)NC(=O)[C@H](Cc4ccc(O)cc4)NC(=O)[C@H](CCCCN)NC(=O)[C@H](CCSC)NC(=O)[C@H](CO)NC(=O)[C@H](Cc4cnc[nH]4)NC(=O)[C@H](CCCCN)NC3=O)C(=O)N[C@@H](CCCNC(=N)N)C(=O)N[C@@H](CCCCN)C(=O)N[C@@H]([C@@H](C)O)C(=O)N2)NC(=O)[C@H](CCCNC(=N)N)NC(=O)[C@H](CO)NC(=O)[C@H](CCCCN)NC(=O)[C@@H]2CCCN2C(=O)[C@H]([C@@H](C)CC)NC(=O)[C@H]([C@@H](C)O)NC(=O)[C@H](CC(=O)O)NC1=O	9.82	9.40	9.20
CC[C@H](C)[C@@H]1NC(=O)[C@@H](NC(=O)[C@H](CO)NC(=O)[C@@H](N)CCCNC(=N)N)CSSC[C@@H](C(=O)O)NC(=O)[C@H]([C@@H](C)O)NC(=O)CNC(=O)[C@@H]2CSSC[C@@H]3NC(=O)[C@H](CCCNC(=N)N)NC(=O)[C@H](Cc4ccccc4)NC(=O)[C@H](C)NC(=O)[C@H]([C@@H](C)O)NC(=O)[C@H](CSSC[C@H](NC(=O)[C@H](Cc4ccccc4)NC(=O)[C@H](CO)NC(=O)[C@H](CC(C)C)NC(=O)[C@H](CCCNC(=N)N)NC(=O)[C@H](Cc4ccc(O)cc4)NC(=O)[C@H](CCCCN)NC(=O)[C@H](CCSC)NC(=O)[C@H](CO)NC(=O)[C@H](Cc4cnc[nH]4)NC(=O)[C@H](CCCCN)NC3=O)C(=O)N[C@@H](CCCNC(=N)N)C(=O)N[C@@H](CCCCN)C(=O)N[C@@H]([C@@H](C)O)C(=O)N2)NC(=O)[C@H](CCCNC(=N)N)NC(=O)[C@H](CO)NC(=O)[C@H](CCCCN)NC(=O)[C@@H]2CCCN2C(=O)[C@H]([C@@H](C)CC)NC(=O)[C@H]([C@@H](C)O)NC(=O)[C@H](CC(=O)O)NC1=O	9.78	9.43	9.31
CC[C@H](C)[C@@H]1NC(=O)[C@@H](NC(=O)[C@H](CO)NC(=O)[C@@H](N)CCCNC(=N)N)CSSC[C@@H](C(=O)O)NC(=O)[C@H]([C@@H](C)O)NC(=O)CNC(=O)[C@@H]2CSSC[C@@H]3NC(=O)[C@H](CCC(N)=O)NC(=O)[C@H](Cc4ccccc4)NC(=O)[C@H](C)NC(=O)[C@H]([C@@H](C)O)NC(=O)[C@H](CSSC[C@H](NC(=O)[C@H](Cc4ccccc4)NC(=O)[C@H](CO)NC(=O)[C@H](CC(C)C)NC(=O)[C@H](CCCNC(=N)N)NC(=O)[C@H](Cc4ccc(O)cc4)NC(=O)[C@H](CCCCN)NC(=O)[C@H](CCSC)NC(=O)[C@H](CO)NC(=O)[C@H](Cc4cnc[nH]4)NC(=O)[C@H](CCCNC(=N)N)NC3=O)C(=O)N[C@@H](CCCNC(=N)N)C(=O)N[C@@H](CCCCN)C(=O)N[C@@H]([C@@H](C)O)C(=O)N2)NC(=O)[C@H](CCCNC(=N)N)NC(=O)[C@H](CO)NC(=O)[C@H](CCCCN)NC(=O)[C@@H]2CCCN2C(=O)[C@H]([C@@H](C)CC)NC(=O)[C@H]([C@@H](C)O)NC(=O)[C@H](CC(=O)O)NC1=O	9.98	10.42	10.25
CC[C@H](C)[C@@H]1NC(=O)[C@@H](NC(=O)[C@H](CO)NC(=O)[C@@H](N)CCCNC(=N)N)CSSC[C@@H](C(=O)O)NC(=O)[C@H]([C@@H](C)O)NC(=O)CNC(=O)[C@@H]2CSSC[C@@H]3NC(=O)[C@H](CCC(N)=O)NC(=O)[C@H](Cc4ccccc4)NC(=O)[C@H](C)NC(=O)[C@H]([C@@H](C)O)NC(=O)[C@H](CSSC[C@H](NC(=O)[C@H](Cc4ccccc4)NC(=O)[C@H](CO)NC(=O)[C@H](CC(C)C)NC(=O)[C@H](CCCNC(=N)N)NC(=O)[C@H](Cc4ccc(O)cc4)NC(=O)[C@H](CCCCN)NC(=O)[C@H](CCSC)NC(=O)[C@H](CO)NC(=O)[C@H](CCCNC(=N)N)NC(=O)[C@H](CCCCN)NC3=O)C(=O)N[C@@H](CCCNC(=N)N)C(=O)N[C@@H](CCCCN)C(=O)N[C@@H]([C@@H](C)O)C(=O)N2)NC(=O)[C@H](CCCNC(=N)N)NC(=O)[C@H](CO)NC(=O)[C@H](CCCCN)NC(=O)[C@@H]2CCCN2C(=O)[C@H]([C@@H](C)CC)NC(=O)[C@H]([C@@H](C)O)NC(=O)[C@H](CC(=O)O)NC1=O	10.02	9.94	9.55
